Consider 36 compounds from ChEMBL document CHEMBL4004873, “SAR of amino pyrrolidines as potent and novel protein-protein interaction inhibitors of the PRC2 complex through EED binding” (Bioorg Med Chem Lett, 2017).

In data set [1] the target is T1, Polycomb protein EED (Homo sapiens, UniProt O75530). In words: Inhibition of EED in human OCILY19 cells assessed as reduction in H3K27 trymethylation measured after 6 days by alphaLISA method. Type of data set: cell-based. (Bead proximity is the source of the signal in Alpha formats.)
T1 sequence (O75530 whole entry): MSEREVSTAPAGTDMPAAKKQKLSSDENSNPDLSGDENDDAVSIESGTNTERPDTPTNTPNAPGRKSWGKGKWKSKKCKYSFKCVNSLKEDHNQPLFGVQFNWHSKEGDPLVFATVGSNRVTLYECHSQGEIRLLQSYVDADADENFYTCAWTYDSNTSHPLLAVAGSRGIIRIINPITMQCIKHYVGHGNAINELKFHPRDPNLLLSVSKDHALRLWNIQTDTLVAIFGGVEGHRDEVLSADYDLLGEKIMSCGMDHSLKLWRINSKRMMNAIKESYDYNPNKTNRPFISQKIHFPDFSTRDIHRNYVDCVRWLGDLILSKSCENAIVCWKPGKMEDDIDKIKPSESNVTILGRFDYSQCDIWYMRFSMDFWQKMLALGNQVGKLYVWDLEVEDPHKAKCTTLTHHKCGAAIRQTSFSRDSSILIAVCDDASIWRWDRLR
The subject of a further data set is Liver. In words: Unbound intrinsic clearance in mouse liver microsomes at 0.5 uM by HPLC-MS/MS method. The format is ADME, microsome. On the technique in general: Liver microsomes are vesicles of endoplasmic reticulum, rich in cytochrome P450 enzymes.
Data set [2] deals with T1, Polycomb protein EED. In words: Inhibition of EED in human G401 cells assessed as reduction in H3K27 trymethylation measured after 6 days by alphaLISA method. Type of data set: cell-based.
The next data set relates to Pfeiffer. In words: Antiproliferative activity against human Pfeiffer cells after 10 days by celltiter-glo luminescent cell viability Assay. Conditions: 240 h. Type of data set: functional, cell-based. (In general: Cellular ATP, detected with luciferase, serves as a proxy for viable cell number.)
The target in data set [3] is T1, Polycomb protein EED. The data set is described as follows: Inhibition of OG(488) labeled probe binding to GST-tagged EED (unknown origin) after 1 hr by LanthaScreen TR-FRET assay.
Data set [4] in a line: Permeability of the compound by PAMPA. Conditions: read-out: permeability. Type of data set: physicochemical.
A short description of data set [5]: Intrinsic clearance in mouse liver microsomes at 0.5 uM by HPLC-MS/MS method. Type of data set: ADME, microsome. Conditions: read-out: CLH.

The term IC50 denotes the concentration that inhibits the measured activity by half. The term Ki denotes a measure of affinity in units of concentration, obtained from inhibition or displacement. Lower therefore signals tighter binding. `CC(=O)N1CCN(c2ccc([C@H]3CN(C4CCc5cccc(F)c54)C[C@@H]3N(C)C)cc2)CC1` (mixture of isomers): the IC50 on Polycomb protein EED [1] was found to be 50 nM; on Polycomb protein EED [2], 33 nM; with Pfeiffer, 33 nM. The CL free in the data set on Liver came out at 220 L/h/kg. This compound also returned a Ki at Polycomb protein EED [3] of 0.29 nM.
As to `Cc1cccc(F)c1CN1C[C@H](c2ccc(C3=CCN(C(=O)CS(C)(=O)=O)CC3)nc2)[C@@H](N(C)C)C1` (racemic), the CL free in the data set with Liver is 268 L/h/kg. Moreover, the Ki on Polycomb protein EED [3] worked out at 4.6 nM.
The compound `C[C@H]1CN(Cc2c(F)cccc2Br)C[C@@H]1N(C)C` (racemic) displayed a Ki on Polycomb protein EED [3] of 380 nM.
Regarding `Cc1cccc(F)c1CN1C[C@H](c2cn(C)c3c(C(=O)N4CC(F)C4)cccc23)[C@@H](N(C)C)C1` (mixture of isomers), the IC50 at Polycomb protein EED [1] was 180 nM; on Polycomb protein EED [2], 31 nM; with Pfeiffer, 65 nM. Besides, in the data set with Liver, the CL free came out at 1100 L/h/kg. In addition, the Ki at Polycomb protein EED [3] was 1 nM.
The compound `CN(C)[C@H]1CN(Cc2nccn2C)C[C@@H]1c1cn(C)c2ccccc12` (racemic) gave a Ki at Polycomb protein EED [3] above 50000 nM.
As for `Cc1cccc(F)c1CN1C[C@H](c2ccc(C(=O)N(C)C)cc2)[C@@H](N(C)C)C1` (racemic), the CL free in the data set on Liver amounted to 97 L/h/kg. Further, the Ki on Polycomb protein EED [3] is 18 nM.
In the data set on Liver, `Cc1cccc(F)c1CN1C[C@H](c2cn(CC(=O)N(C)C)c3ncccc23)[C@@H](N(C)C)C1` (racemic) had a CL free of 276 L/h/kg. This compound also registered a Ki at Polycomb protein EED [3] of 5.3 nM.
For `CN(C)[C@H]1CN(Cc2c(F)cccc2Cl)C[C@@H]1c1cn(C)c2ccccc12` (racemic), the figures for the IC50 at Polycomb protein EED [1], at Polycomb protein EED [2] and in the data set with Pfeiffer were above 10000 nM, 6900 nM and 3300 nM, respectively. Further, in data set [4], the Papp was in the range of 1 to 3 ×10⁻⁶ cm/s. The CLint scaled at 0.5 µM in data set [5] is above 1000 L/h/kg. At Polycomb protein EED [3], the inhibition constant Ki was determined as 53 nM.
`Cc1cccc(F)c1CN1C[C@H](c2ccc(-c3cnn(CC(N)=O)c3)cc2)[C@@H](N(C)C)C1` (racemic) registered a CL free in the data set with Liver of 225 L/h/kg. The compound also gave a Ki on Polycomb protein EED [3] of 2.6 nM.
With `CN(C)[C@H]1CN(Cc2c(F)cccc2Br)C[C@@H]1C1CCCCC1` (racemic), the Ki at Polycomb protein EED [3] was found to be 230 nM.
For `CN(C)[C@H]1CN([C@H]2CCc3cccc(F)c32)C[C@@H]1c1cn(C)c2ccccc12`, the IC50 at Polycomb protein EED [1] amounted to 660 nM; on Polycomb protein EED [2] it was 290 nM; in the data set with Pfeiffer it was 1100 nM. Also, in data set [4], the Papp lay in the range of 1 to 3 ×10⁻⁶ cm/s. Besides, in data set [5], the CLint scaled at 0.5 µM was above 1000 L/h/kg. Also, the affinity on Polycomb protein EED [3], expressed as Ki, was 11 nM.
`CN(C)[C@H]1CN(Cc2c(F)cccc2Br)C[C@@H]1C1CCOCC1` (racemic) returned a Ki at Polycomb protein EED [3] of 59 nM.
The same measure, in the same setting: the value for `CN(C)[C@H]1CN(Cc2c(F)cccc2Br)C[C@@H]1C1CC1` (racemic) was 71 nM.
The same measure, in the same setting: the value for `CN(C)[C@H]1CN([C@H]2COc3cccc(F)c32)C[C@@H]1c1cn(C)c2ccccc12` was 610 nM; that for `Cc1cccc(F)c1CN1C[C@H](C2CCN(c3cnc(C(N)=O)cn3)CC2)[C@@H](N(C)C)C1` (racemic) was 0.65 nM.
For `CN(C)[C@H]1CN(Cc2c(F)cccc2Br)C[C@@H]1c1ccccc1` (racemic), the affinity at Polycomb protein EED [3], expressed as Ki, was 78 nM.
As for `Cc1cccc(F)c1CN1C[C@H](c2ccc(N3CCN(c4ccccn4)CC3)cc2)[C@@H](N(C)C)C1` (racemic), the CL free in the data set with Liver stood at 9900 L/h/kg. Affinity at Polycomb protein EED [3] was put at a Ki of 2.1 nM.
On Polycomb protein EED [3], `CN(C)[C@H]1CN([C@H]2CCc3ncccc32)C[C@@H]1c1cn(C)c2ccccc12` (racemic) had a Ki of 260 nM.
Regarding `Cc1nc2ncccn2c1CN1C[C@H](c2cn(C)c3ccccc23)[C@@H](N(C)C)C1` (racemic), the Ki on Polycomb protein EED [3] is above 50000 nM.
With `Cc1ccc(F)c(CN2C[C@H](c3cn(C)c4ccccc34)[C@@H](N(C)C)C2)c1` (racemic), the CLint scaled at 0.5 µM in data set [5] was above 1000 L/h/kg. On Polycomb protein EED [3], the affinity corresponds to a Ki of 160 nM.
On Polycomb protein EED [3], `CCn1cc(CN2C[C@H](c3cn(C)c4ccccc34)[C@@H](N(C)C)C2)c(C)n1` (racemic) returned a Ki above 50000 nM.
For `Cc1cccc(F)c1CN1C[C@H](c2cn(C)c3c(N4CCN(C)C(=O)C4)cccc23)[C@@H](N(C)C)C1` (mixture of isomers), the IC50 at Polycomb protein EED [1] came to 100 nM; on Polycomb protein EED [2], 190 nM; with Pfeiffer, 98 nM. The affinity on Polycomb protein EED [3], expressed as Ki, was 0.74 nM.
Regarding `COc1ccccc1CN1C[C@H](c2cn(C)c3ccccc23)[C@@H](N(C)C)C1` (racemic), in data set [5], the CLint scaled at 0.5 µM was above 1000 L/h/kg.
`CN(C)[C@H]1CN([C@H]2CCc3ccccc32)C[C@@H]1c1cn(C)c2ccccc12` (racemic): the Ki at Polycomb protein EED [3] came out at 45 nM.
Consider `CN(C)[C@H]1CN(Cc2ccccc2F)C[C@@H]1c1cn(C)c2ccccc12` (racemic), for which the CLint scaled at 0.5 µM in data set [5] is above 1000 L/h/kg. Moreover, the affinity on Polycomb protein EED [3] corresponds to a Ki of 330 nM.
The matching figures for `CN(C)[C@H]1CN(Cc2ccccc2)C[C@@H]1c1cn(C)c2ccccc12` (racemic): above 1000 L/h/kg and 1500 nM.
`CN(C)C(=O)c1cccc2c([C@H]3CN(Cc4c(F)cccc4Br)C[C@@H]3N(C)C)cn(C)c12`: the affinity on Polycomb protein EED [3], expressed as Ki, was 23 nM.
Same read-out and setting: for `CN(C)[C@H]1CN(Cc2ccn3ccnc3c2)C[C@@H]1c1cn(C)c2ccccc12` (racemic) the value was above 50000 nM; for `CN(C)[C@H]1CN(Cc2c(F)cccc2Br)C[C@@H]1c1ccncc1` (racemic), 49 nM.
With `CN(C)[C@H]1CN(C2CCc3cccc(F)c32)C[C@@H]1C1CCN(c2ccc(C(N)=O)cn2)CC1` (mixture of isomers), the IC50 stood at 280 nM on Polycomb protein EED [1], 230 nM on Polycomb protein EED [2] and 130 nM with Pfeiffer. For the same compound, in the data set on Liver, the CL free worked out at 120 L/h/kg. This compound also yielded a Ki at Polycomb protein EED [3] of 0.45 nM.
With `CN(C)[C@H]1CN(Cc2c(F)cccc2Br)C[C@@H]1c1cn(C)c2ccccc12` (racemic), the IC50 at Polycomb protein EED [1] stood at 8300 nM; at Polycomb protein EED [2], 4100 nM; in the data set on Pfeiffer, 9500 nM. In addition, the Papp in data set [4] was 1 to 3 ×10⁻⁶ cm/s. For the same compound, the CLint scaled at 0.5 µM in data set [5] is above 1000 L/h/kg. Besides, affinity at Polycomb protein EED [3] was put at a Ki of 13 nM.
On to `Cc1cccc(F)c1CN1C[C@H](c2cn(C)c3ccccc23)[C@@H](N(C)C)C1`, for which the IC50 amounted to 2400 nM on Polycomb protein EED [1], 2400 nM on Polycomb protein EED [2] and 3300 nM in the data set on Pfeiffer. For the same compound, the Papp in data set [4] was 1 to 3 ×10⁻⁶ cm/s. In data set [5], the CLint scaled at 0.5 µM was above 1000 L/h/kg. On Polycomb protein EED [3], this compound yielded a Ki of 12 nM.
In the data set on Liver, `CC(=O)N1CCN(c2ccc([C@H]3CN(Cc4c(C)cccc4F)C[C@@H]3N(C)C)cc2)CC1` (racemic) returned a CL free of 170 L/h/kg. The same compound showed a Ki on Polycomb protein EED [3] of 2.6 nM.
As to `CN(C)[C@H]1CN([C@@H]2CCc3cccc(F)c32)C[C@@H]1c1cn(C)c2ccccc12`, in data set [5], the CLint scaled at 0.5 µM was above 1000 L/h/kg. The affinity on Polycomb protein EED [3] corresponds to a Ki of 129 nM.
At Polycomb protein EED [3], `CN(C)[C@H]1CN([C@H]2CCCc3ccccc32)C[C@@H]1c1cn(C)c2ccccc12` (racemic) showed a Ki of 78 nM.
Turning to `Cc1cccc(F)c1CN1C[C@H](c2ccccc2)[C@@H](N(C)C)C1` (racemic), the CL free with Liver is 1300 L/h/kg. The compound also came in with a Ki on Polycomb protein EED [3] of 56 nM.
